Measurements from patent US20130142882A1, “METHODS AND COMPOSITIONS FOR TREATMENT, MODIFICATION AND MANAGEMENT OF BONE CANCER PAIN” (GOLDEN BIOTECHNOLOGY CORPORATION, priority 2011, published 2013).
Where “and” joins values, the source holds several entries; their conditions need not be identical. Equal values may be shown once.

System: rat model of bone cancer pain (Walker 256 rat mammary gland carcinoma cells injected into the right tibia)
Assay: Mechanical allodynia (Von Frey test) in a rat model of bone cancer pain
Format: in vivo, Rat (Sprague-Dawley)
Protocol: The objective of this study was to assess the potential anti-nociceptive and anti-tumourigenic effects of Compound 1, at doses of 15, 30 and 45 mg/kg, in an animal model of bone cancer pain. Metastasis of cancer cells to the bone was modeled by injecting Walker 256 rat mammary gland carcinoma cells into the medullary cavity of the right tibia (Mao-Yinga, et al. A rat model of bone cancer pain induced by intra-tibia inoculation of Walker 256 mammary gland carcinoma cells. Biochem Biophys Res Commun 2006; 345: 1292-1298). The development of mechanical allodynia was monitored using an established behavioural test (Von Frey test). Treatment administration was chronic, from the day of surgery, and administered twice daily for 21 days to determine whether there was a prophylactic effect on the development of mechanical allodynia. Zoledronic acid was used as a reference substance. No regulatory test guidelines were applicable to this study.
Rats have been studied in this model of bone cancer pain. The route of administration of Compound 1 and vehicle was oral. The doses of Compound 1 were 15, 30 and 45 mg/kg, twice a day (approximately 10 h apart) for 21 days.
The dose of zoledronic acid was 30 μg/kg, as a single administration, every second day from the day of surgery, based on historical data. The route of administration of zoledronic acid was subcutaneous.
The dose volume for test substance and vehicle treatments was 5 mL/kg. The vehicle for Compound 1 was corn oil. Each rat allocated to test substance or vehicle treatments received an oral dose, by gavage, twice daily (approximately 8 am and 6 pm) for 21 consecutive days. The dose volume for the reference substance treatment was 1 mL/kg. Each rat allocated to reference substance treatment received a single subcutaneous dose, by injection (approximately 8 am) every second day from the day of surgery.
Cell preparation. Walker 256 rat mammary gland carcinoma cells (obtained from the American Type Culture Collection (ATCC)) were harvested from sub-confluent cultures growing in vitro and the number of viable cells determined. Cells were then re-suspended in sterile phosphate buffered saline (PBS) at a concentration of 4×10^5 cells. Female Sprague-Dawley rats were intratibially injected in the right leg with 4×10^5 Walker 256 rat mammary gland carcinoma cells in a volume of 6 μL as detailed in Surgical procedure below.
Baseline behavioural testing. The rats were moved to the procedure room 5 days prior to behavioural testing. The rats were then housed, dosed and observed in the procedure room. The behavioural test was performed on all rats on 2 separate occasions prior to surgery, to establish baseline values. Pre-surgery baseline values were taken as the data from the final (second) day of testing (the data from the first day of testing was not included but classed as part of the acclimatisation).
Mechanical allodynia (Von Frey test): Each animal was placed in a wire mesh cage and a series of Von Frey filaments were applied to the plantar surface of the hind paw, from below. The filaments were applied in ascending order (starting with the weakest force), and the withdrawal threshold for both the left and right hind paws were evaluated. Each filament was indented on the mid-plantar surface of the foot to the point where it just started to bend; this was repeated approximately 8 to 10 times per filament at a frequency of approximately 1 Hz. The withdrawal threshold was defined as the lowest force of two or more consecutive Von Frey filaments to elicit a reflex withdrawal response (i.e. a brief paw flick).
Surgical procedure. The animals were surgically prepared over 2 days. Each rat was anaesthetised as necessary with isofluorane in […]. The surface around the incision site was shaved and sterilised. Under aseptic conditions, an incision was made in the skin over the top of the right tibia to expose the tibia head with minimal damage. […]

[1] = 30 mg/kg p.o. twice daily, Day 19, left paw
[2] = 30 mg/kg p.o. twice daily, Day 19, right paw
[3] = 30 mg/kg p.o. twice daily, Day 21, left paw
[4] = 30 mg/kg p.o. twice daily, Day 21, right paw
[5] = 30 mg/kg p.o. twice daily, Pre-Surgery, left paw
[6] = 30 mg/kg p.o. twice daily, Pre-Surgery, right paw
[7] = 45 mg/kg p.o. twice daily, Day 6, left paw
[8] = 45 mg/kg p.o. twice daily, Day 6, right paw
[9] = 45 mg/kg p.o. twice daily, Day 12, left paw
[10] = 45 mg/kg p.o. twice daily, Day 12, right paw
[11] = 45 mg/kg p.o. twice daily, Day 14, left paw
[12] = 45 mg/kg p.o. twice daily, Day 14, right paw
[13] = 45 mg/kg p.o. twice daily, Day 19, left paw
[14] = 45 mg/kg p.o. twice daily, Day 19, right paw
[15] = 45 mg/kg p.o. twice daily, Day 21, left paw
[16] = 45 mg/kg p.o. twice daily, Day 21, right paw
[17] = 45 mg/kg p.o. twice daily, Pre-Surgery, left paw
[18] = 45 mg/kg p.o. twice daily, Pre-Surgery, right paw

With COC1=C(OC)C(O)C(C/C=C(\C)CC/C=C(\C)CCC=C(C)C)C(C)C1=O (stereo not drawn) [Compound 1, 4-hydroxy-2,3-dimethoxy-6-methyl-5-(3,7,11-trimethyldodeca-2,6,10-trienyl)cyclohex-2-enone] the “Withdrawal Threshold (Log 10 (force (g) × 10 000)) on Day Post-Operative” value [1] was 5.12 Log 10 (force (g) × 10 000), the “Withdrawal threshold (g) on day post-operative” value (“Withdrawal threshold (g)” below) [1] was 14.04 g and the “Withdrawal Threshold (Log 10 (force (g) × 10 000)) on Day Post-Operative” value [2] was 4.91 Log 10 (force (g) × 10 000). For the same molecule, the “Withdrawal threshold (g)” value [2] was 9.07 g, the “Withdrawal Threshold (Log 10 (force (g) × 10 000)) on Day Post-Operative” value [3] was 5.05 Log 10 (force (g) × 10 000) and the “Withdrawal threshold (g)” value [3] was 11.40 ± 0.81 g and 11.40 g. For the same molecule, the “Withdrawal Threshold (Log 10 (force (g) × 10 000)) on Day Post-Operative” value [4] was 4.82 Log 10 (force (g) × 10 000), the “Withdrawal threshold (g)” value [4] was 8.15 ± 1.43 g and 8.15 g and the “Withdrawal Threshold (Log 10 (force (g) × 10 000)) on Day Post-Operative” value [5] was 5.33 Log 10 (force (g) × 10 000). For the same molecule, the “Withdrawal threshold (g)” value [5] was 21.79 g, the “Withdrawal Threshold (Log 10 (force (g) × 10 000)) on Day Post-Operative” value [6] was 5.33 Log 10 (force (g) × 10 000) and the “Withdrawal threshold (g)” value [6] was 21.79 g. For the same molecule, the “Withdrawal Threshold (Log 10 (force (g) × 10 000)) on Day Post-Operative” value [7] was 5.35 Log 10 (force (g) × 10 000), the “Withdrawal threshold (g)” value [7] was 22.55 g and the “Withdrawal Threshold (Log 10 (force (g) × 10 000)) on Day Post-Operative” value [8] was 5.35 Log 10 (force (g) × 10 000). The “Withdrawal threshold (g)” value [8] was 22.55 g, the “Withdrawal Threshold (Log 10 (force (g) × 10 000)) on Day Post-Operative” value [9] was 5.31 Log 10 (force (g) × 10 000) and the “Withdrawal threshold (g)” value [9] was 20.81 g. The “Withdrawal Threshold (Log 10 (force (g) × 10 000)) on Day Post-Operative” value [10] was 5.16 Log 10 (force (g) × 10 000), the “Withdrawal threshold (g)” value [10] was 15.98 g and the “Withdrawal Threshold (Log 10 (force (g) × 10 000)) on Day Post-Operative” value [11] was 5.35 Log 10 (force (g) × 10 000). For the same molecule, the “Withdrawal threshold (g)” value [11] was 22.48 g, the “Withdrawal Threshold (Log 10 (force (g) × 10 000)) on Day Post-Operative” value [12] was 5.30 Log 10 (force (g) × 10 000) and the “Withdrawal threshold (g)” value [12] was 20.41 g. For the same molecule, the “Withdrawal Threshold (Log 10 (force (g) × 10 000)) on Day Post-Operative” value [13] was 5.29 Log 10 (force (g) × 10 000), the “Withdrawal threshold (g)” value [13] was 20.12 g and the “Withdrawal Threshold (Log 10 (force (g) × 10 000)) on Day Post-Operative” value [14] was 5.24 Log 10 (force (g) × 10 000). For the same molecule, the “Withdrawal threshold (g)” value [14] was 18.58 g, the “Withdrawal Threshold (Log 10 (force (g) × 10 000)) on Day Post-Operative” value [15] was 5.29 Log 10 (force (g) × 10 000) and the “Withdrawal threshold (g)” value [15] was 20.12 ± 1.67 g and 20.12 g. The “Withdrawal Threshold (Log 10 (force (g) × 10 000)) on Day Post-Operative” value [16] was 5.25 Log 10 (force (g) × 10 000), the “Withdrawal threshold (g)” value [16] was 19.06 ± 2.17 g and 19.06 g and the “Withdrawal Threshold (Log 10 (force (g) × 10 000)) on Day Post-Operative” value [17] was 5.33 Log 10 (force (g) × 10 000). For the same molecule, the “Withdrawal threshold (g)” value [17] was 21.79 g, the “Withdrawal Threshold (Log 10 (force (g) × 10 000)) on Day Post-Operative” value [18] was 5.33 Log 10 (force (g) × 10 000) and the “Withdrawal threshold (g)” value [18] was 21.79 g.
